# Measurements: patent US20230372277A1, “COMPOSITION FOR PROMOTING HAIR GROWTH AND/OR INHIBITING HAIR LOSS” (priority 2020, published 2023)
# Marks after values point to notes of the source that are not given here.
# Columns and labels:
# hair follicles [1] = experiment: Density of hair follicles in skin (number in 1 mm^2); assay type: in vivo, male wistar albino rats; details: testosterone-injected rats; for Rate of change compared to normal group (%) (density of hair follicles): Table 7, Equation 1, compounds or mixture oral 10 mg/kg daily 21 days
# Method: The density of hair follicles was measured by counting the number of hair follicles in a unit area (1 mm^2).
# Rate of change compared to normal group=(hair follicle density of negative control group or experimental group−hair follicle density of normal group)/hair follicle density of normal group (Equation 1)
# (§1) The normal control group (control; normal group) is a group in which neither testosterone nor the extract is administered, and the negative control group (Testosterone; T) is a group in which only testosterone is administered.
# as §1
# as §1, with “As a comparative group, the mixture was administered by the same method, and the administration method was a method of intraperitoneal administration (IP). The” for “The”
# hair follicles [2] = experiment: Ratio of anagen stage and telogen stage of hair follicles in skin; details: for Rate of change compared to normal group (anagen/telogen ratio) / Anagen/telogen ratio / Anagen / Telogen: testosterone-injected rats
# Method: Male wistar albino rats weight 180 to 240 g, February to March age were bred under the conditions of a constant light-dark cycle in which light was applied from 8 am to 8 pm, a temperature of 22 to 25° C., and a relative humidity of 60%. For the feed of experimental animals, a general pellet dry feed was used, and feed and water were allowed to be consumed at all times.
# In addition, the broccoli extract and/or avocado extract prepared in Example 1 were orally administered for a total of 21 days daily so as to be a dose of 100 mg per 1 kg of the body weight of each experimental animal (in case of coadministration group, broccoli extract 67 mg/kg+avocado extract 33 mg/kg).
# Rate of change compared to normal group=(anagen/telogen ratio of negative control group or experimental group−anagen/telogen ratio of normal group)/anagen/telogen ratio of normal group (Equation 2)
# [3] = test system: dihydrotestosterone (DHT); experiment: DHT concentration in plasma (ELISA kit) of testosterone-injected rats; assay type: in vivo, male wistar albino rats; details: for concentration of DHT in plasma (FIG. 4b): testosterone-injected rats, compounds or mixture oral 10 mg/kg daily 21 days
# Method: (§2) For 21 days, the testosterone solution and broccoli extract, avocado extract or broccoli and avocado extract were administered, and on the next day, before skin samples were collected, plasma from rats was extracted and the concentration of testosterone and DHT were measured using a testosterone and DHT ELISA kit (Arigo Biolaboratories, Taiwan) according to the manufacturer's instructions.
# hair follicles [4] = experiment: Shape and length of hair follicles in haematoxylin and eosin stained dorsal skin; assay type: in vivo, male wistar albino rats; details: testosterone-injected rats; for length of hair follicles (FIG. 5): compounds or mixture oral 10 mg/kg daily 21 days, compared to negative control (negative control compared to normal group)
# Method: By staining the skin tissue of experimental animals, the shape change of hair follicles was investigated. […] After 24 hours, the skin sample was soaked in paraffin wax and sectioned to a uniform thickness of 10 μm, and hair follicles were stained with haematoxylin and eosin.
# testosterone = experiment: Testosterone concentration in plasma (ELISA kit) of testosterone-injected rats; assay type: in vivo, male wistar albino rats; details: for concentration of testosterone in plasma (FIG. 4a): testosterone-injected rats, compounds or mixture oral 10 mg/kg daily 21 days
# Method: as §2
# [5] = Table 7, compounds or mixture (SFN 8 + I3C 1 + β-sitosterol 1 mg/kg) oral 10 mg/kg daily 21 days, mean ± SEM, n = 15
# [6] = Table 8, Equation 2, compounds or mixture oral 10 mg/kg daily 21 days
# [7] = Table 8, compounds or mixture oral 10 mg/kg daily 21 days
# [8] = Table 8, compounds or mixture oral 10 mg/kg daily 21 days, listed as Group B, 10 mg/kg
# [9] = Table 8, compounds or mixture oral 10 mg/kg daily 21 days, listed as testosterone solution, 10 mg/kg
# [10] = rats injected s.c. with testosterone 21 days, extracts oral 100 mg/kg daily 21 days (mixture BE 67 + AE 33 mg/kg), negative control compared to normal group
compound,measurement,setting,value
OCc1c[nH]c2ccccc12 [indole-3-carbinol],Rate of change compared to normal group (%) (density of hair follicles),hair follicles [1]; 10 mg/kg,about 21%
same,Rate of change compared to normal group (%) (density of hair follicles),"hair follicles [1]; listed as Group D, 10 mg/kg",+21.37%
same,Density of hair follicles,hair follicles [1]; [5],1.59 ± 0.74
same,Rate of change compared to normal group (anagen/telogen ratio),hair follicles [2]; [6],−54.88%
same,Anagen/telogen ratio,hair follicles [2]; [7],0.87*
same,concentration of DHT in plasma (FIG. 4b),[3],significantly reduced
same,length of hair follicles (FIG. 5),hair follicles [4],increased
same,concentration of testosterone in plasma (FIG. 4a),testosterone,significantly reduced
C[S+]([O-])CCCCN=C=S (stereo not drawn) [sulforaphane],Rate of change compared to normal group (%) (density of hair follicles),hair follicles [1]; 10 mg/kg,about 47%
same,Rate of change compared to normal group (%) (density of hair follicles),"hair follicles [1]; listed as Group C, 10 mg/kg",+47.33%
same,Density of hair follicles,hair follicles [1]; [5],1.93 ± 0.102
same,Rate of change compared to normal group (anagen/telogen ratio),hair follicles [2]; [6],−47.05%
same,Anagen/telogen ratio,hair follicles [2]; [7],1.03*
same,concentration of DHT in plasma (FIG. 4b),[3],significantly reduced
same,length of hair follicles (FIG. 5),hair follicles [4],increased
same,concentration of testosterone in plasma (FIG. 4a),testosterone,significantly reduced
CC[C@H](CC[C@@H](C)[C@H]1CC[C@H]2[C@@H]3CC=C4C[C@@H](O)CC[C@]4(C)[C@H]3CC[C@]12C)C(C)C [β-sitosterol],Rate of change compared to normal group (%) (density of hair follicles),hair follicles [1]; 10 mg/kg,about 68%
same,Rate of change compared to normal group (%) (density of hair follicles),"hair follicles [1]; listed as Group E, 10 mg/kg",+67.56%
same,Density of hair follicles,hair follicles [1]; [5],2.195 ± 0.093
same,concentration of DHT in plasma (FIG. 4b),[3],significantly reduced
same,length of hair follicles (FIG. 5),hair follicles [4],increased
"C[C@]12CC[C@H]3[C@@H](CCC4=CC(=O)CC[C@@]43C)[C@@H]1CC[C@@H]2O [Testosterone, testosterone]",Rate of change compared to normal group (hair follicle density),"hair follicles [1]; Table 2, Equation 1, extracts oral 100 mg/kg daily 21 days",−30.53%
same,Hair follicle density,"hair follicles [1]; Table 2, number of hair follicles in 1 mm^2, extracts oral 100 mg/kg daily 21 days, mean ± SEM, n = 15",0.91 ± 0.069
same,Hair follicle density,"hair follicles [1]; Table 5, broccoli extracts by extraction solvent, same method as Example 3-2, mean ± standard error",0.98 ± 0.23
same,Rate of change compared to normal group (%) (density of hair follicles),hair follicles [1],−30.53%
same,Density of hair follicles,hair follicles [1]; [5],0.91 ± 0.069
same,Rate of change compared to normal group (density of hair follicles),"hair follicles [1]; Table 9, Equation 1, mixtures at various mixing ratios, oral 10 mg/kg in total daily 21 days",−21.6%
same,Density of hair follicles,"hair follicles [1]; Table 9, SFN:I3C:β-sitosterol mixtures at various mixing ratios, oral 10 mg/kg in total daily 21 days, mean ± standard error",0.98 ± 0.23
same,Rate of change compared to normal group (anagen/telogen ratio),"hair follicles [2]; Table 3, Equation 2, extracts oral 100 mg/kg daily 21 days",−91.23%
same,Anagen,"hair follicles [2]; Table 3, hair follicles in anagen stage, extracts oral 100 mg/kg daily 21 days, listed as Group 2, 100 mg/kg",14.6
same,Anagen,"hair follicles [2]; Table 3, hair follicles in anagen stage, extracts oral 100 mg/kg daily 21 days, listed as testosterone solution, 100 mg/kg",reduced
same,Telogen,"hair follicles [2]; Table 3, hair follicles in telogen stage, extracts oral 100 mg/kg daily 21 days, listed as Group 2, 100 mg/kg",85.4
same,Telogen,"hair follicles [2]; Table 3, hair follicles in telogen stage, extracts oral 100 mg/kg daily 21 days, listed as testosterone solution, 100 mg/kg",increased
same,Anagen/telogen ratio,"hair follicles [2]; Table 3, extracts oral 100 mg/kg daily 21 days",0.171
same,Rate of change compared to normal group (anagen/telogen ratio),hair follicles [2]; [6],−91.23%
same,Anagen/telogen ratio,hair follicles [2]; [7],0.17
same,Anagen,hair follicles [2]; [8],14.6
same,Telogen,hair follicles [2]; [8],85.4
same,Anagen,hair follicles [2]; [9],reduced
same,Telogen,hair follicles [2]; [9],increased
same,anagen/telogen ratio reduced compared to the normal group,hair follicles [2]; negative control group administered only with the testosterone solution s.c. 21 days,about 91%
same,concentration of DHT in plasma (FIG. 1b),[3]; [10],largely increased
same,concentration of DHT in plasma (FIG. 4b),[3],largely increased
same,length of hair follicles (FIG. 5),hair follicles [4],largely reduced
same,"shape change of hair follicles (stained photograph, FIG. 2)","hair follicles [4]; extracts oral 100 mg/kg daily 21 days, H&E stained dorsal skin",many hair follicles in the telogen stage were found
same,length of hair follicles (FIG. 3),"hair follicles [4]; extracts oral 100 mg/kg daily 21 days, extracts compared to negative control, negative control compared to normal group",largely reduced
same,concentration of testosterone in plasma (FIG. 1a),testosterone; [10],largely increased
same,concentration of testosterone in plasma (FIG. 4a),testosterone,largely increased
